Some results are limits rather than exact numbers.

For assay [1], the target named is T1, human cloned CHRM4 receptor (Homo sapiens, UniProt P08173).
T1 construct: expressed in transfected cells; host or cells: CHO-K1 (M4_CHO)
T1 sequence (P08173 1-479): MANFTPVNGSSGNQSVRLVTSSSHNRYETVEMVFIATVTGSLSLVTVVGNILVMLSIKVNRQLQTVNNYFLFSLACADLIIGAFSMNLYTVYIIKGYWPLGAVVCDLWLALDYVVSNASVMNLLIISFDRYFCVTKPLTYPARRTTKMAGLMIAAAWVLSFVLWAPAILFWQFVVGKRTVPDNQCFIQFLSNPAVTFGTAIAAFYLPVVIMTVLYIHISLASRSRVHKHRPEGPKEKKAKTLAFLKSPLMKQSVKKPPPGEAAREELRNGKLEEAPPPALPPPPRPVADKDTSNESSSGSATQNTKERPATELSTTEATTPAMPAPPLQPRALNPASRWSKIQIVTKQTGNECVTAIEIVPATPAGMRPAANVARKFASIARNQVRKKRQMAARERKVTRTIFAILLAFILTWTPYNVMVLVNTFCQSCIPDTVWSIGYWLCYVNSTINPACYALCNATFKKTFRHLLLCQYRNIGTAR
As to the kind of experiment: CHRM4 Ca++ Flux Assay (M4_CHO cells, agonist mode). The format is cell-based. To be noted: for Emax: Percent Activity (PA), read-out: M4 FDSS PA %; for EC50: geometric mean if tested more than once, read-out: M4 FDSS EC50. The procedure, abridged: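 Agonist-mode calcium flux in an M4-expressing CHO-K1 line: compounds were dosed at 11 points in triplicate and fluorescence was tracked for 3 min. Cells were preloaded with Ca++ dye and kept in −Ca/−Mg HBSS with 20 μM ATP for 60 min. Efficacy is scaled to carbachol EC100; EC50s come from four-parameter regression, geometric mean across runs.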

Assay [2] addresses T2, human cloned CHRM3 receptor (Homo sapiens, UniProt P20309).
T2 construct: expressed in transfected cells; host or cells: CHO-K1 (M3_CHO)
As to the kind of experiment: CHRM3 Ca++ Flux Assay (M3_CHO cells, agonist mode). The format is cell-based. The note with it: for Emax: Percent Activity (PA) measured to EC100 of Carbachol, read-out: M3 FDSS PA %; for EC50: agonist mode, geometric mean if tested more than once, read-out: M3 FDSS EC50. The procedure, abridged:
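Agonist-mode calcium mobilisation: compounds, 11 concentrations in triplicate, applied to stable M3_CHO or M5_CHO cells loaded with Ca++ dye, fluorescence followed 3 min. Efficacy expressed against carbachol EC100; EC curves by four-parameter nonlinear regression, geometric mean across independent runs.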

T2 sequence (P20309 whole entry): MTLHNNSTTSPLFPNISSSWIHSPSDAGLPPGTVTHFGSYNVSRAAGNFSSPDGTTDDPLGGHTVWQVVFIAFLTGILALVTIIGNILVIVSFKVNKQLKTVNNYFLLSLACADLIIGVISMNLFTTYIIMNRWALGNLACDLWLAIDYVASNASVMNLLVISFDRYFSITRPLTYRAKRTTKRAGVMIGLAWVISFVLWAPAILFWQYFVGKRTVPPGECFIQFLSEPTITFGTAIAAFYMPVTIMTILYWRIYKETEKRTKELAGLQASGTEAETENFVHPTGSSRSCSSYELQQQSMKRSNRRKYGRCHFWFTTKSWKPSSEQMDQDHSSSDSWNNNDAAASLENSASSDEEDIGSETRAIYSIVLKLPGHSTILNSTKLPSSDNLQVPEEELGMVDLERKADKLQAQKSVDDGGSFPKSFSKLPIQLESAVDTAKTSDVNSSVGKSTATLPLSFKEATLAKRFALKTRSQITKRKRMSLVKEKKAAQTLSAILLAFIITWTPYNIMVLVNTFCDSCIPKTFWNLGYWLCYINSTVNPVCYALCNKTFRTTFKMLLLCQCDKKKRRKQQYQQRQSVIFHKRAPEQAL

On to `Cc1nnc(-c2ccccc2C2CCN([C@@H]3COC4(C3)CN(c3nnco3)C4)CC2)o1` [Example 1Y, (S)-7-(4-(2-(5-methyl-1,3,4-oxadiazol-2-yl)phenyl)piperidin-1-yl)-2-(1,3,4-oxadiazol-2-yl)-5-oxa-2-azaspiro[3.4]octane], for which, in assay [1], the Emax amounted to 86% and the EC50 (as a rule, the concentration at which the effect is half-maximal) was 112 nM. Moreover, in assay [2], the Emax worked out at 0% and the 50% effective concentration (EC50) was more than 25000 nM.
The matching figures for `Cc1nnc(COc2ccc(F)cc2C2CCN([C@@H]3COC4(C3)CN(c3nnco3)C4)CC2)s1` [Example 2E, (S)-7-(4-(5-fluoro-2-((5-methyl-1,3,4-thiadiazol-2-yl)methoxy)phenyl)piperidin-1-yl)-2-(1,3,4-oxadiazol-2-yl)-5-oxa-2-azaspiro[3.4]octane]: 85%, 1 nM, 0% and more than 25000 nM.
In the case of `Fc1ccc(OCC2COC2)c(C2CCN([C@@H]3COC4(C3)CN(c3nncs3)C4)CC2)c1` [Example 2A, (S)-7-(4-(5-fluoro-2-(oxetan-3-ylmethoxy)phenyl)piperidin-1-yl)-2-(1,3,4-thiadiazol-2-yl)-5-oxa-2-azaspiro[3.4]octane], in assay [1], the Emax came out at 79% and the EC50 was 24 nM. Further, in assay [2], the Emax is 0% and the half-maximal effective concentration (EC50) is more than 25000 nM.
Taken in the same sequence, the figures for `CCc1nnc(COc2ccc(F)cc2C2CCN([C@@H]3COC4(C3)CN(c3nnco3)C4)CC2)s1` [Example 2T, (S)-7-(4-(2-((5-ethyl-1,3,4-thiadiazol-2-yl)methoxy)-5-fluorophenyl)piperidin-1-yl)-2-(1,3,4-oxadiazol-2-yl)-5-oxa-2-azaspiro[3.4]octane] were 89%, 2 nM, 0% and more than 25000 nM.
Taken in the same sequence, the figures for `COc1ccccc1C1CCN([C@@H]2COC3(C2)CN(c2nnco2)C3)CC1` [Example 1Q, (S)-7-(4-(2-methoxyphenyl)piperidin-1-yl)-2-(1,3,4-oxadiazol-2-yl)-5-oxa-2-azaspiro[3.4]octane] were 79%, 52 nM, 0% and more than 25000 nM.
`c1ccc(C2CCN([C@@H]3COC4(C3)CN(c3nnco3)C4)CC2)c(O[C@@H]2CCOC2)c1` [Example 1O, (S)-2-(1,3,4-oxadiazol-2-yl)-7-(4-(2-(((R)-tetrahydrofuran-3-yl)oxy)phenyl)piperidin-1-yl)-5-oxa-2-azaspiro[3.4]octane]: the Emax in assay [1] came out at 89%; in assay [2], 0%. The EC50 in assay [1] was 26 nM; in assay [2] it was more than 25000 nM.
The matching figures for `COc1cc(F)ccc1C1CCN([C@@H]2COC3(C2)CN(c2nnco2)C3)CC1` [Example 1S, (S)-7-(4-(4-fluoro-2-methoxyphenyl)piperidin-1-yl)-2-(1,3,4-oxadiazol-2-yl)-5-oxa-2-azaspiro[3.4]octane]: 68%, 0%, 79 nM and more than 25000 nM.
Taken in the same sequence, the figures for `Cc1nnc(COc2ccc(F)cc2C2CCN([C@@H]3COC4(C3)CN(c3nnco3)C4)CC2)o1` [Example 2F, (S)-7-(4-(5-fluoro-2-((5-methyl-1,3,4-oxadiazol-2-yl)methoxy)phenyl)piperidin-1-yl)-2-(1,3,4-oxadiazol-2-yl)-5-oxa-2-azaspiro[3.4]octane] were 90%, 0%, 1 nM and more than 25000 nM.
With `OC1(COc2ccc(F)cc2C2CCN([C@@H]3COC4(C3)CN(c3nnco3)C4)CC2)COC1` [Example 2U, (S)-3-((2-(1-(2-(1,3,4-oxadiazol-2-yl)-5-oxa-2-azaspiro[3.4]octan-7-yl)piperidin-4-yl)-4-fluorophenoxy)methyl)oxetan-3-ol], in assay [1], the Emax was found to be 86% and the EC50 was 12 nM. Moreover, in assay [2], the Emax came out at 0% and the EC50 is more than 25000 nM.
The matching figures for `Fc1ccc(OC[C@H]2CCCO2)c(C2CCN([C@@H]3COC4(C3)CN(c3nnco3)C4)CC2)c1` [Example 2M, (S)-7-(4-(5-fluoro-2-(((R)-tetrahydrofuran-2-yl)methoxy)phenyl)piperidin-1-yl)-2-(1,3,4-oxadiazol-2-yl)-5-oxa-2-azaspiro[3.4]octane]: 58%, 145 nM, 0% and more than 25000 nM.
As to `Fc1ccc(OC[C@H]2CCOC2)c(C2CCN([C@@H]3COC4(C3)CN(c3nncs3)C4)CC2)c1` [Example 5X, (S)-7-(4-(5-fluoro-2-(((S)-tetrahydrofuran-3-yl)methoxy)phenyl)piperidin-1-yl)-2-(1,3,4-thiadiazol-2-yl)-5-oxa-2-azaspiro[3.4]octane], in assay [1], the Emax was 71% and the EC50 worked out at 58 nM. Also, in assay [2], the Emax is 0% and the half-maximal effective concentration (EC50) is more than 25000 nM.
For the molecule `COCCOc1ccc(F)cc1C1CCN([C@@H]2COC3(C2)CN(c2nnco2)C3)CC1` [Example 1L, (S)-7-(4-(5-fluoro-2-(2-methoxyethoxy)phenyl)piperidin-1-yl)-2-(1,3,4-oxadiazol-2-yl)-5-oxa-2-azaspiro[3.4]octane], the values for the Emax in assay [1] and in assay [2] were 74% and 0%, respectively. Moreover, the EC50 in assay [1] is 99 nM; in assay [2], more than 25000 nM.
Take `Fc1ccc(OC2CC3(COC3)C2)c(C2CCN([C@@H]3COC4(C3)CN(c3nnco3)C4)CC2)c1` [Example 2L, (S)-7-(4-(2-((2-oxaspiro[3.3]heptan-6-yl)oxy)-5-fluorophenyl)piperidin-1-yl)-2-(1,3,4-oxadiazol-2-yl)-5-oxa-2-azaspiro[3.4]octane]: in assay [1], the Emax was determined as 81% and the EC50 turned out to be 50 nM. Further, in assay [2], the Emax was 0% and the EC50 is more than 25000 nM.
The matching figures for `Fc1ccc(OC2CC3(COC3)C2)c(C2CCN([C@@H]3COC4(C3)CN(c3ncon3)C4)CC2)c1` [Example 6C, (S)-7-(4-(2-((2-oxaspiro[3.3]heptan-6-yl)oxy)-5-fluorophenyl)piperidin-1-yl)-2-(1,2,4-oxadiazol-3-yl)-5-oxa-2-azaspiro[3.4]octane]: 74%, 44 nM, 0% and more than 25000 nM.
Turning to `Fc1ccc(OCC2COC2)c(C2CCN([C@@H]3COC4(C3)CN(c3nnco3)C4)CC2)c1` [Example 2H, (S)-7-(4-(5-fluoro-2-(oxetan-3-ylmethoxy)phenyl)piperidin-1-yl)-2-(1,3,4-oxadiazol-2-yl)-5-oxa-2-azaspiro[3.4]octane], in assay [1], the Emax came to 88% and the EC50 stood at 6 nM. Also, in assay [2], the Emax is 0% and the EC50 is more than 25000 nM.
Consider `CC1(COc2ccc(F)cc2C2CCN([C@@H]3COC4(C3)CN(c3nncs3)C4)CC2)COC1` [Example 2B, (S)-7-(4-(5-fluoro-2-((3-methyloxetan-3-yl)methoxy)phenyl)piperidin-1-yl)-2-(1,3,4-thiadiazol-2-yl)-5-oxa-2-azaspiro[3.4]octane], for which, in assay [1], the Emax came out at 71% and the EC50 was 25 nM. Further, in assay [2], the Emax was 0% and the EC50 is more than 25000 nM.
As for `Fc1ccc(OCC2(F)COC2)c(C2CCN([C@@H]3COC4(C3)CN(c3nnco3)C4)CC2)c1` [Example 2J, (S)-7-(4-(5-fluoro-2-((3-fluorooxetan-3-yl)methoxy)phenyl)piperidin-1-yl)-2-(1,3,4-oxadiazol-2-yl)-5-oxa-2-azaspiro[3.4]octane], the Emax in assay [1] amounted to 90%; in assay [2] it was 0%. Further, the EC50 in assay [1] was 12 nM; in assay [2], more than 25000 nM.
As to `Cc1cc(COc2ccc(F)cc2C2CCN([C@@H]3COC4(C3)CN(c3nnco3)C4)CC2)on1` [Example 2G, (S)-7-(4-(5-fluoro-2-((3-methylisoxazol-5-yl)methoxy)phenyl)piperidin-1-yl)-2-(1,3,4-oxadiazol-2-yl)-5-oxa-2-azaspiro[3.4]octane], the values for the Emax in assay [1] and in assay [2] were 86% and 0%, respectively. In addition, the EC50 in assay [1] was 3 nM; in assay [2], more than 25000 nM.
Consider `Fc1ccc(OC2CCOCC2)c(C2CCN([C@@H]3COC4(C3)CN(c3ncon3)C4)CC2)c1` [Example 6A, (S)-7-(4-(5-fluoro-2-((tetrahydro-2H-pyran-4-yl)oxy)phenyl)piperidin-1-yl)-2-(1,2,4-oxadiazol-3-yl)-5-oxa-2-azaspiro[3.4]octane], for which the Emax was 74% in assay [1] and 0% in assay [2]. Besides, the figures for the EC50 in assay [1] and in assay [2] were 12 nM and more than 25000 nM, respectively.
